Reference: paper PMC9738107, “Targeting of the ELR+CXCL/CXCR1/2 Pathway Is a Relevant Strategy for the Treatment of Paediatric Medulloblastomas” (Cells, 2022)

How the values were obtained:
Daoy cells [1] = experiment: XTT assay (cell metabolism/cytotoxicity); format: cell-based, human; settings: for IC50: Homo sapiens, Daoy
Description: (§1) To evaluate the efficacy of this compound in MB cells, we first determined the relative IC50 values for each cell line using XTT assays (Figure 3A–E). The XTT assay is used to measure cellular metabolic activity (overall activity of mitochondrial dehydrogenases) as an indicator of cell viability, proliferation, and cytotoxicity. […] Overall, IC50 values for all cell lines were in the micromolar range, making C29 a very efficient agent to inhibit cell metabolism and viability.
(§2) Figure 3 A new pharmacological inhibitor of CXCR1/2, C29, inhibits the metabolism of MB cells. (A–D). Cytotoxic effect induced by C29 on Daoy (A), ONS-76 (B), HD-MB03 (C), and D341Med (D) cells. Cells were treated with increasing doses of the inhibitor for 24, 48, and 72 h. Cytotoxicity was measured using the XTT assay. Absorbance measurements were performed at […], n = 3. (E) Table with the different IC50 values for all conditions. (F) Cell death after 48 h of treatment with control (DMSO, CT) or C29 1, 2.5 or 5 µM treatment, on MB cells, and normal cells (N), n = 3. Statistics were performed using the one-way method ANOVA. ** p < 0.01, *** p < 0.001. For this figure, Daoy = Da, ONS-76 = O, HD-MB03 = HD, D341 = D3, C8D1A = C8. TEXT PRINTED IN THE PICTURE: (E) C29: IC50 (μM): 5.6 (Cell line: Daoy; 24h); IC50 (μM): 3 (Cell line: Daoy; 48h); IC50 (μM): 0.9 (Cell line: Daoy; 72h); IC50 (μM): 17.9 (Cell line: ONS-76; 24h); IC50 (μM): 6.8 (Cell line: ONS-76; 48h); IC50 (μM): 2.1 (Cell line: ONS-76; 72h); IC50 (μM): 2.6 (Cell line: HD-MB03; 24h); IC50 (μM): 1.8 (Cell line: HD-MB03; 48h); IC50 (μM): 1.3 (Cell line: HD-MB03; 72h); IC50 (μM): 7.5 (Cell line: D341Med; 24h); IC50 (μM): 4.9 (Cell line: D341Med; 48h); IC50 (μM): 4.6 (Cell line: D341Med; 72h)
(§3) centrations of C29 in 96‐well plates for 48h. 50μl/well of XTT solution (Cell Proliferation
(§4) kit II, Sigma‐Aldrich) were added to measure cell metabolism at 490 nm with GloMax‐ […]
(§5) 30 μg of proteins were separated on 10% SDS‐polyacrylamide
(§6) gels and transferred on PVDF membranes in Tris‐Glycine buffer (25 mM Tris, 192 mM
(§7) glycine, pH 8∙3) + 20% ethanol (v:v). Membranes were blocked with 3% BSA, at room tem‐
(§8) perature for 1 h, then immunoblotted overnight with primary antibodies diluted in 3%
(§9) BSA, at 4 °C. The following primary antibodies were used: AKT (CST, #9272S), phospho‐
(§10) ARD1 (homemade polyclonal rabbit antibody). Membranes were incubated with HRP‐
(§11) conjugated secondary antibodies anti‐rabbit IgG 1/5000e (Promega), at room temperature,
(§12) for 1h30. After washing, the Advansta WesternBright Quantum HRP substrate (Diagom‐
(§13) ics, Blagnac, France) was used as detection reagent.

HD-MB03 cells = experiment: XTT assay (cell metabolism/cytotoxicity); format: cell-based, human; settings: for IC50: Homo sapiens
Description: as §1, §2, §3, §4, §5, §6, §7, §8, §9, §10, §11, §12, §13

ONS-76 cells [2] = experiment: XTT assay (cell metabolism/cytotoxicity); format: cell-based, human; settings: for IC50: Homo sapiens
Description: as §1, §2, §3, §4, §5, §6, §7, §8, §9, §10, §11, §12, §13

Daoy cells [3] = experiment: Spheroid invasion, 3D culture; format: cell-based, human; settings: 1 µM, from day 2
Experimental: (§14) Figure 4 C29 reduces proliferation, migration, and invasion of naïve MB cells. (A) Proliferation of Daoy, ONS-76, HD-MB03, and D341Med wild-type cells after treatment with 1 μM C29 or the control (DMSO), n = 3. (B) Clonogenic assay on Daoy (n = 4), ONS-76 (n = 3) and HD -MB03 (n = 5) cells after treatment with control (DMSO) or C29 (1 μM or 2.5 μM). Scale = 500 μm. (C) Cell migration through the Boyden chamber of Daoy and ONS-76 cells specifically attracted by 200 ng/mL CXCL8. Results are expressed as percentage of control (DMSO) (n = 3). Scale = 1000 μm. (D) Spheroid invasion using 3D culture cell assays on Daoy (n = 4) and ONS-76 cells (n = 3) treated with control (DMSO) or C29 at a concentration of 1 μM on day 0, 1, and 2. Results are expressed as percentage of day 0, n = 4. Scale = 500 μm. Statistics were performed using Student t-test for 2 comparisons only or ANOVA test for multiple comparisons. * p < 0.05, ** p < 0.01, *** p < 0.001. […]
(§15) each month by using PlasmoTest Kit (#10L07‐MM, InvivoGen, Toulouse, France). Daoy and ONS‐76 belong to the Shh genetic subgroup, D341‐Med and HD‐MB03 to group 3. […]
(§16) (1, 2∙5, 5μM) for 48 hours. […]
(§17) 5000 cells were plated in 48 multi‐well plates coated with agarose 0∙8%. […] Images were recorded each day with the Evos XL Core Cell Imaging system (Thermo Fisher).

ONS-76 cells [4] = experiment: Spheroid invasion, 3D culture; format: cell-based, human; settings: ONS-76, 1 µM, from day 7
Experimental: as §14, §15, §16, §17

Lipophilicity (log D) = format: physicochemical; settings: source not stated

For `O=C(Nc1cccc(Cl)c1)Nc1nc2ccc([N+](=O)[O-])cc2s1` [C29, 1-(3-chlorophenyl)-3-(6-nitrobenzo[d]thiazol-2-yl) urea], the IC50 (Daoy cells [1]; 24 h) was 5600 nM, the IC50 (Daoy cells [1]; 48 h) was 3000 nM and the IC50 (Daoy cells [1]; 72 h) was 900 nM. The “Selectivity index (SI)” value (Daoy cells [1]; IC50 normal cells (C8D1A) / IC50 Daoy) was 6.44, the IC50 (HD-MB03 cells; HD-MB03, 24 h) was 2600 nM and the IC50 (HD-MB03 cells; HD-MB03, 48 h) was 1800 nM. The IC50 (HD-MB03 cells; HD-MB03, 72 h) was 1300 nM, the “Selectivity index (SI)” value (HD-MB03 cells; IC50 normal cells (C8D1A) / IC50 HD-MB03) was 10.7 and the IC50 (ONS-76 cells [2]; ONS-76, 24 h) was 17900 nM. The IC50 (ONS-76 cells [2]; ONS-76, 48 h) was 6800 nM, the IC50 (ONS-76 cells [2]; ONS-76, 72 h) was 2100 nM and the “Selectivity index (SI)” value (ONS-76 cells [2]; IC50 normal cells (C8D1A) / IC50 ONS-76) was 2.84. For the same compound, the Spheroid invasion ability (Daoy cells [3]) was “affected the invasion ability”, the Spheroid invasion ability (ONS-76 cells [4]) was “affected the invasion ability” and the logD (Lipophilicity (log D)) was about 3.
